Laboratory results: patent US6596722B2, “Piperidine, tetrahydropyridine and piperazine derivatives, their preparation and use” (H. Lundbeck A/S, priority 1999, dated 2003)
Counter-ions that a name gives are not always drawn. Like-named read-outs stand apart in the source and are kept apart here.

Columns and labels:
[1] = biological target: T1, 3H-5-HT uptake into whole rat brain synaptosomes (serotonin reuptake) (Rattus norvegicus, UniProt P31652); assay: Inhibition of 3H-5-HT uptake into rat brain synaptosomes; assay type: biochemical
T1 construct: from tissue; host or cells: whole rat brain synaptosomes
Experimental: Inhibition of ^3H-5-HT Uptake Into Rat Brain Synaptosomes.
Using this method, the ability of drugs to inhibit the accumulation of ^3H-5-HT into whole rat brain synaptosomes is determined in vitro.

human 5-HT1A receptors = biological target: T2, human 5-HT1A receptors (Homo sapiens, UniProt P08908); assay: Inhibition of 3H-5-CT binding to human 5-HT1A receptors
T2 construct: expressed in transfected cells; host or cells: HeLa cells (HA7)
T2 sequence (P08908 1-422): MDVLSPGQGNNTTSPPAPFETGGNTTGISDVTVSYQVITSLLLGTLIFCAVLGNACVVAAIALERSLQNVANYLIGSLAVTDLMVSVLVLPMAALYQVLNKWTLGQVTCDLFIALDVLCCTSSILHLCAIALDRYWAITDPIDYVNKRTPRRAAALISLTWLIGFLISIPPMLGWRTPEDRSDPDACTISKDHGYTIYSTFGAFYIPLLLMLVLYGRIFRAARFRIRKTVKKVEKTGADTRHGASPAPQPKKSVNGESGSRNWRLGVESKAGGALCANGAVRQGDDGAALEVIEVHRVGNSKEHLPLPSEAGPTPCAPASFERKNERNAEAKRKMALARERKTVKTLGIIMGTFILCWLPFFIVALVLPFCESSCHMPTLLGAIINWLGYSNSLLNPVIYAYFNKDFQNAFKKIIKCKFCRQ
Experimental: Inhibition of ^3H-5-CT Binding to Human 5-HT1A Receptors.
Human 5-HT1A receptors (40 μg of cell homogenate) were incubated for 15 minutes at 37° C. in 50 mM Tris buffer at pH 7.7 in the presence of ^3H-5-CT. Non-specific binding was determined by including 10 μM of metergoline. The reaction was terminated by rapid filtration through Unifilter GF/B filters on a Tomtec Cell Harvester. Filters were counted in a Packard Top Counter.

[2] = biological target: T3, cloned 5-HT1A receptors stably expressed in transfected HeLa cells (HA7) (Homo sapiens, UniProt P08908); assay: 5-HT1A antagonistic activity: antagonism of 5-HT induced inhibition of forskolin induced cAMP accumulation; assay type: cell-based; details: HeLa cells (HA7) expressing cloned 5-HT1A receptors
T3 construct: expressed in transfected cells; host or cells: HeLa cells (HA7)
T3 sequence (P08908 1-422): T2 sequence (P08908 1-422)
Experimental: The assay was performed as a modification of the method described by Pauwels, P. J. et al, Biochem. Pharmacol. 1993, 45, 375.

[3] = 3H-5-HT accumulation into whole rat brain synaptosomes, in vitro, read-out: Inhibition of serotonin reuptake IC50
[4] = cloned human 5-HT1A receptors in HeLa cells (HA7) homogenate, 15 minutes at 37° C., pH 7.7

T1 sequence (P31652 whole entry): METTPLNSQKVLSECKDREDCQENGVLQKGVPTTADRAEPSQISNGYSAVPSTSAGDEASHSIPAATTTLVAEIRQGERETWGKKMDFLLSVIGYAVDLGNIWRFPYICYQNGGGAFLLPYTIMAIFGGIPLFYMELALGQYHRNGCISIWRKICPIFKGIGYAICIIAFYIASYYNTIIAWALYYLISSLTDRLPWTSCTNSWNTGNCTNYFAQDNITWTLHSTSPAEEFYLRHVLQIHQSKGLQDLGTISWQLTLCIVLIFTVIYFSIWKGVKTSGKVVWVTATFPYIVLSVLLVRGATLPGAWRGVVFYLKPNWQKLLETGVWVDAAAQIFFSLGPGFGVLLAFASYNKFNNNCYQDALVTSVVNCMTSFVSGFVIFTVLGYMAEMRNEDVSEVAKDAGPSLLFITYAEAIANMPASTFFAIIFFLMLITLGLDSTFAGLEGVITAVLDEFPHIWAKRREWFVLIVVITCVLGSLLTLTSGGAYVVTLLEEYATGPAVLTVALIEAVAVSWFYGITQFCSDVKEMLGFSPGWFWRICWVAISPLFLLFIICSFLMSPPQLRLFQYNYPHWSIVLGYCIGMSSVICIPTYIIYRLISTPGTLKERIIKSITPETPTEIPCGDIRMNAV

SMILES | IC50 [1, 3] [nM] | IC50 (human 5-HT1A receptors; [4]) [nM] | IC50 [2] [nM] | melting point [°C] | other results
Fc1ccc2occ(CCN3CCN(c4cccc5ccoc45)CC3)c2c1 [Compound 3a, 1-[Benzofuran-7-yl]-4-[2-(5-fluorobenzofuran-3-yl)ethyl]piperazine] | 170 | 29 |  |  | 
c1cc2c(c(N3CCN(CCc4coc5ccccc45)CC3)c1)OCCO2 [Compound 3f, 1-[1,4-Benzodioxan-5-yl]-4-[2-(benzofuran-3-yl)ethyl]piperazine] |  |  | 290 |  | IC50 [1]: 12 nM; IC50 (human 5-HT1A receptors): 8.3 nM
Fc1ccc2occ(CCN3CC=C(c4cccc5ccoc45)CC3)c2c1 (as salt: oxalate) [Compound 3h, 4-[Benzofuran-7-yl]-1-[2-(5-fluorobenzofuran-3-yl)ethyl]-1,2,3,6-tetrahydropyridine] |  |  |  | 201 to 211 | 
c1cc2c(c(N3CCN(CCc4coc5ccccc45)CC3)c1)OCCO2 (as salt: oxalate) [Compound 3f, 1-[1,4-Benzodioxan-5-yl]-4-[2-(benzofuran-3-yl)ethyl]piperazine] |  |  |  | 206 to 208 | 
Fc1ccc2occ(CCN3CCN(c4cccc5c4OCCO5)CC3)c2c1 [Compound 2a, 1-[1,4-Benzodioxan-5-yl]-4-[2-(5-fluorobenzofuran-3-yl)ethyl]piperazine] | 0.69 | 14 | 100 |  | 
Cc1ccc(Cl)c2occ(CCCN3CCN(c4cccc5c4OCCO5)CC3)c12 [Compound 4a, 1-[1,4-Benzodioxan-5-yl]-4-[3-(7-chloro-4-methylbenzofuran-3-yl)-1-propyl]piperazine] | 32 |  | 260 |  | 
Cc1cccc2occ(CCCN3CCN(c4cccc5c4OCCO5)CC3)c12 [Compound 5a, 1-[1,4-Benzodioxan-5-yl]-4-[3-(4-methylbenzofuran-3-yl)-1-propyl]piperazine] | 15 | 2.9 | 390 |  | 
C(=CC1CCc2ccccc21)CCN1CCN(c2cccc3c2OCCO3)CC1 (stereo not drawn) [Compound 1b, 1-[1,4-Benzodioxan-5-yl]-4-[1-(indan-1-yl)-1-buten-4-yl]piperazine] |  | 6.1 |  |  | 
Cc1cccc2occ(CCN3CCN(c4cccc5c4OCCO5)CC3)c12 [Compound 3c, 1-[1,4-Benzodioxan-5-yl]-4-[2-(4-methylbenzofuran-3-yl)ethyl]piperazine] | 11 | 19 | 2300 |  | 
Clc1cccc2c(CCN3CCN(c4cccc5c4OCCO5)CC3)coc12 [Compound 3i, 1-[1,4-Benzodioxan-5-yl]-4-[2-(7-chlorobenzofuran-3-yl)ethyl]piperazine] | 1.5 | 2.1 | 1500 |  | 
Clc1ccc2occ(CCN3CC=C(c4cccc5c4OCC5)CC3)c2c1 [Compound 3g, 1-[2-(5-chlorobenzofuran-3-yl)ethyl]-4-[2,3-dihydrobenzofuran-7-yl]-1,2,3,6-tetrahydropyridine] | 160 |  |  |  | IC50 (human 5-HT1A receptors): 24 nM
Clc1cccc2c(CCN3CCN(c4cccc5c4OCCO5)CC3)coc12 (as salt: oxalate) [Compound 3i, 1-[1,4-Benzodioxan-5-yl]-4-[2-(7-chlorobenzofuran-3-yl)ethyl]piperazine] |  |  |  | 190 to 192 | 
Cc1cccc2occ(CCN3CCN(c4cccc5c4OCCO5)CC3)c12 (as salt: oxalate) [Compound 3c, 1-[1,4-Benzodioxan-5-yl]-4-[2-(4-methylbenzofuran-3-yl)ethyl]piperazine] |  |  |  | 204 to 206 | 
Clc1ccc2c(CCN3CCN(c4cccc5c4OCCO5)CC3)n[nH]c2c1 [Compound 2b, 1-[1,4-Benzodioxan-5-yl]-4-[2-(6-chloroindazol-3-yl)ethyl]piperazine] | 160 | 9.3 |  |  | 
Cc1ccc2c(CCN3CCN(c4cccc5c4OCCO5)CC3)coc2c1 (as salt: oxalate) [Compound 3e, 1-[1,4-Benzodioxan-5-yl]-4-[2-(6-methylbenzofuran-3-yl)ethyl]piperazine] |  |  |  | 174 to 176 | 
C(=CC1CCc2ccccc21)CCN1CCN(c2cccc3c2OCCO3)CC1 (stereo not drawn) (as salt: oxalate) [Compound 1b, 1-[1,4-Benzodioxan-5-yl]-4-[1-(indan-1-yl)-1-buten-4-yl]piperazine] |  |  |  | 154 to 157 | 
Clc1ccc2occ(CCN3CC=C(c4cccc5c4OCC5)CC3)c2c1 (as salt: oxalate) [Compound 3g, 1-[2-(5-chlorobenzofuran-3-yl)ethyl]-4-[2,3-dihydrobenzofuran-7-yl]-1,2,3,6-tetrahydropyridine] |  |  |  | 187 to 202 | 
Fc1ccc2c(CCCN3CCN(c4cccc5c4OCCO5)CC3)noc2c1 [Compound 3b, 1-[1,4-Benzodioxan-5-yl]-4-[3-(6-fluorobenzo[1,2]isoxazol-3-yl)-1-propyl]piperazine] | 240 | 7.5 | 74 |  | 
Fc1ccc2occ(CCN3CC=C(c4cccc5ccoc45)CC3)c2c1 [Compound 3h, 4-[Benzofuran-7-yl]-1-[2-(5-fluorobenzofuran-3-yl)ethyl]-1,2,3,6-tetrahydropyridine] |  |  |  |  | IC50 [1]: 43 nM; IC50 (human 5-HT1A receptors): 11 nM
c1ccc2c(c1)CCC2CCCCN1CCN(c2cccc3c2OCCO3)CC1 (stereo not drawn) [Compound 1c, 1-[1,4-Benzodioxan-5-yl]-4-[1-(indan-1-yl)-4-butyl]piperazine] | 130 | 2.5 |  |  | 
Clc1ccc2occ(CCN3CCN(c4cccc5c4OCCO5)CC3)c2c1 [Compound 3d, 1-[1,4-Benzodioxan-5-yl]-4-[2-(5-chlorobenzofuran-3-yl)ethyl]piperazine] | 34 | 18 | 550 |  | 
Clc1ccc2c(CCN3CCN(c4cccc5c4OCCO5)CC3)n[nH]c2c1 (as salt: oxalate) [Compound 2b, 1-[1,4-Benzodioxan-5-yl]-4-[2-(6-chloroindazol-3-yl)ethyl]piperazine] |  |  |  | 111 to 113 | 
Fc1ccc2c(CCCN3CCN(c4cccc5c4OCCO5)CC3)noc2c1 (as salt: fumarate) [Compound 3b, 1-[1,4-Benzodioxan-5-yl]-4-[3-(6-fluorobenzo[1,2]isoxazol-3-yl)-1-propyl]piperazine] |  |  |  | 187 to 189 | 
c1ccc2c(c1)CCC2CCCCN1CCN(c2cccc3c2OCCO3)CC1 (stereo not drawn) (as salt: oxalate) [Compound 1c, 1-[1,4-Benzodioxan-5-yl]-4-[1-(indan-1-yl)-4-butyl]piperazine] |  |  |  | 154 to 155 | 
C1=CC(CCCCN2CCN(c3cccc4c3OCCO4)CC2)c2ccccc21 (stereo not drawn) [Compound 1a, 1-[1,4-Benzodioxan-5-yl]-4-[1-(inden-1-yl)-4-butyl]piperazine] | 61 | 1.7 | 170 |  | 
Clc1ccc2occ(CCN3CCN(c4cccc5c4OCCO5)CC3)c2c1 (as salt: oxalate) [Compound 3d, 1-[1,4-Benzodioxan-5-yl]-4-[2-(5-chlorobenzofuran-3-yl)ethyl]piperazine] |  |  |  | 206 to 208 | 
Cc1ccc2c(CCN3CCN(c4cccc5c4OCCO5)CC3)coc2c1 [Compound 3e, 1-[1,4-Benzodioxan-5-yl]-4-[2-(6-methylbenzofuran-3-yl)ethyl]piperazine] | 58 | 8.8 | 1400 |  | 
